Patent US20240109868A1, “EP300/CBP MODULATOR, PREPARATION METHOD THEREFOR AND USE THEREOF” (Miracure Biotechnology Limited, priority 2022, published 2024)

Legend:
[1] = system: vCap Cell; assay: vCap cell growth inhibition, CellTiter-Glo, 72 h; type: cell-based; conditions: vCap cells, 72 h culture
Method in brief: (§1)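 Cells seeded at 5×10^3/well overnight in RPMI-1640/10% FBS, then exposed to compound (0.5% DMSO final) for 72 h at 37 °C.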

[2] = system: 22Rv1 Cell; assay: 22RV1 cell growth inhibition, CellTiter-Glo, 72 h; type: cell-based; conditions: 22RV1 cells, 72 h culture
Method in brief: as §1

Compound	IC50 ([1]; Homo sapiens, VCaP, 72 h) [nM]	IC50 ([2]; Homo sapiens, 22Rv1, 72 h) [nM]	IC50 [1] [nM]	IC50 [2] [nM]
CNC(=O)N1Cc2cc(C3CCNCC3)cc(N3CCCc4cc(-c5cnn(C)c5)c(C(F)F)cc43)c2C1 [Compound M001042]	> 1000	> 1000	–	–
CCNC(=O)N1CCc2cc(Cl)cc(N3CCCc4cc(-c5cnn(C)c5)c(C(F)F)cc43)c2C1 [Compound M001229]	> 1000	> 1000	–	–
CNC(=O)N1CCc2cc(C3CCN(CCOC)C(=O)C3)cc(N3CCCc4cc(-c5cnn(C)c5)c(C(F)F)cc43)c2C1 (stereo not shown) [Compound M001188]	< 1000	< 1000	–	–
CNC(=O)N1CCc2cc(C3CCN(C4COC4)CC3)cc(N3CCCc4cc(-c5cnn(C)c5)c(C(F)F)cc43)c2C1 [Compound M001059]	> 1000	> 1000	–	–
CC(=O)N1Cc2cc(C3CCN(C(=O)C4CN(C)C4)CC3)cc(N3CCCc4cc(-c5cnn(C)c5)c(C(F)F)cc43)c2C1 [Compound M001086]	> 1000	> 1000	–	–
CNC(=O)N1Cc2cc(-c3ccc(OC)cc3)cc(N3CCCc4cc(-c5cnn(C)c5)c(C(F)F)cc43)c2C1 [Compound M001121]	> 1000	> 1000	–	–
CNC(=O)N1CCc2cc(C3CCN(C(C)=O)C3)cc(N3CCCc4cc(-c5cnn(C)c5)c(C(F)F)cc43)c2C1 (stereo not shown) [Compound M001054]	> 1000	> 1000	–	–
COCCN1CC(c2cc3c(c(N4CCCc5cc(-c6cnn(C)c6)c(C(F)F)cc54)c2)CN(C(C)=O)C3)CCC1=O (stereo not shown) [Compound M001225]	< 1000	> 1000	–	–
CNC(=O)N1CCc2cc(C3CCN(C(C)=O)CC3)cc(N3CCCc4cc(-c5cnn(C)c5)c(C(F)F)cc43)c2C1 [Compound M001068]	< 1000	< 1000	–	–
COC1CCC(c2cc3c(c(N4CCCc5cc(-c6cnn(C)c6)c(C(F)F)cc54)c2)CN(C(C)=O)CC3)CC1 (stereo not shown) [Compound M001197]	–	–	> 1000	> 1000
CN1CCC(c2cc3c(c(N4CCCc5cc(-c6cnn(C)c6)c(C(F)F)cc54)c2)CN(C)C(=O)C3)CC1 [Compound M001028, 8-[7-(difluoromethyl)-6-(1-methylpyrazol-4-yl)-3,4-dihydro-2H-quinolin-1-yl]-2-methyl-6-(1-methyl-4-piperidyl)-1,4-dihydroisoquinolin-3-one]	> 1000	> 1000	–	–
CC(=O)N1Cc2cc(C3CCN(C)C(=O)C3)cc(N3CCCc4cc(-c5cnn(C)c5)c(C(F)F)cc43)c2C1 (stereo not shown) [Compound M001127]	< 1000	< 1000	–	–
CC(=O)N1Cc2cc(C3CCC([S@](C)(=N)=O)CC3)cc(N3CCCc4cc(-c5cnn(C)c5)c(C(F)F)cc43)c2C1 (stereo in doubt) [Compound M001330]	> 1000	> 1000	–	–
CNC(=O)N1CCc2cc(C3CCN(C(=O)C4CCN(C)C4)CC3)cc(N3CCCc4cc(-c5cnn(C)c5)c(C(F)F)cc43)c2C1 (stereo not shown) [Compound M001085]	> 1000	> 1000	–	–
CCOC(=O)N1CCc2cc(Cl)cc(N3CCCc4cc(-c5cnn(C)c5)c(C(F)F)cc43)c2C1 [Compound M001228]	> 1000	> 1000	–	–
COC(=O)N1CCc2cc(Cl)cc(N3CCCc4cc(-c5cnn(C)c5)c(C(F)F)cc43)c2C1 [Compound M001201]	> 1000	> 1000	–	–
CC(=O)N1Cc2cc(C3CCCN(C)C3)cc(N3CCCc4cc(-c5cnn(C)c5)c(C(F)F)cc43)c2C1 (stereo not shown) [Compound M001049]	> 1000	> 1000	–	–
CC(=O)N1Cc2cc(C3CCC(N)CC3)cc(N3CCCc4cc(-c5cnn(C)c5)c(C(F)F)cc43)c2C1 (stereo not shown) [Compound M001301, 1-(6-(4-aminocyclohexyl)-4-(7-(difluoromethyl)-6-(1-methyl-1H-pyrazol-4-yl)-3,4-dihydroquinolin-1(2H)-yl)isoindolin-2-yl)ethan-1-one]	> 1000	> 1000	–	–

Compound	IC50 ([1]; Homo sapiens, VCaP, 72 h) [nM]	IC50 ([2]; Homo sapiens, 22Rv1, 72 h) [nM]	IC50 [1] [nM]	IC50 [2] [nM]
CSC1CCC(c2cc3c(c(N4CCCc5cc(-c6cnn(C)c6)c(C(F)F)cc54)c2)CN(C(C)=O)C3)CC1 (stereo not shown) [Compound M001324]	–	–	< 1000	> 1000
CC(=O)N1Cc2cc([C@H]3CC[C@@H](O)CC3)cc(N3CCCc4cc(-c5cnn(C)c5)c(C(F)F)cc43)c2C1 [Compound M001195]	< 1000	> 1000	–	–
CNC(=O)N1CCc2cc(C3CCN(OC)CC3)cc(N3CCCc4cc(-c5cnn(C)c5)c(C(F)F)cc43)c2C1 [Compound M001268]	< 1000	> 1000	–	–
COC(=O)N1Cc2cc(C3CCC(OC)CC3)cc(N3CCCc4cc(-c5cnn(C)c5)c(C(F)F)cc43)c2C1 (stereo not shown) [Compound M001204]	–	–	> 1000	> 1000
CC(=O)N1Cc2cc(C3CC4CCC(C3)N4)cc(N3CCCc4cc(-c5cnn(C)c5)c(C(F)F)cc43)c2C1 (stereo not shown) [Compound M001052]	> 1000	> 1000	–	–
CC(=O)N1CCc2cc([C@H]3CC[C@@H](O)CC3)cc(N3CCCc4cc(-c5cnn(C)c5)c(C(F)F)cc43)c2C1 [Compound M001178]	> 1000	> 1000	–	–
CNC(=O)N1Cc2nc(C3CCOCC3)nc(N3CCCc4cc(-c5cnn(C)c5)c(C(F)F)cc43)c2C1 [Compound M001244]	> 1000	> 1000	–	–
CNC(=O)N1CCc2cc(N3CCS(=O)(=O)CC3)cc(N3CCCc4cc(-c5cnn(C)c5)c(C(F)F)cc43)c2C1 [Compound M001021]	> 1000	> 1000	–	–
CNC(=O)N1CCc2cc([C@H]3CC[C@H](O)CC3)cc(N3CCCc4cc(-c5cnn(C)c5)c(C(F)F)cc43)c2C1 [Compound M001181]	> 1000	> 1000	–	–
CNC(=O)N1CCc2cc(C3CCC(=O)N(CC(C)(C)O)C3)cc(N3CCCc4cc(-c5cnn(C)c5)c(C(F)F)cc43)c2C1 (stereo not shown) [Compound M001230]	< 1000	< 1000	–	–
CC(=O)N[C@H]1CC[C@H](c2cc3c(c(N4CCCc5cc(-c6cnn(C)c6)c(C(F)F)cc54)c2)CN(C(C)=O)C3)CC1 [Compound M001304]	< 1000	< 1000	–	–
CC(=O)N1Cc2cc(C3CCC4(CC3)OCCO4)cc(N3CCCc4cc(-c5cnn(C)c5)c(C(F)F)cc43)c2C1 [Compound M001101]	< 1000	< 1000	–	–
CC(=O)N1Cc2cc(C3CCNC(=O)C3)cc(N3CCCc4cc(-c5cnn(C)c5)ccc43)c2C1 (stereo not shown) [Compound M001218]	> 1000	> 1000	–	–
CC(=O)N1Cc2cc(C3CCN(CC(F)F)CC3)cc(N3CCCc4cc(-c5cnn(C)c5)c(C(F)F)cc43)c2C1 [Compound M001058]	> 1000	> 1000	–	–
CNC(=O)N1C2CCC1CC(c1cc3c(c(N4CCCc5cc(-c6cnn(C)c6)c(C(F)F)cc54)c1)CN(C(C)=O)C3)C2 (stereo not shown) [Compound M001129]	< 1000	< 1000	–	–
CNC(=O)N1CCc2cc(N3CCSCC3)cc(N3CCCc4cc(-c5cnn(C)c5)c(C(F)F)cc43)c2C1 [Compound M001019]	> 1000	> 1000	–	–
CNC(=O)N1CCc2cc(C3CCN(C(=O)C4CCNC4)CC3)cc(N3CCCc4cc(-c5cnn(C)c5)c(C(F)F)cc43)c2C1 (stereo not shown) [Compound M001075]	> 1000	> 1000	–	–
